In patent US20040022676A1, “Apparatus and method for controlled delivery of a gas” (Selective Micro Technologies, LLC, priority 2000, published 2004):

Assays:
microbes = conditions: as low as; cited from earlier work
biofilm = assay: Removal of biofilm from contaminated dental equipment with chlorine dioxide solution
From the text: Apparatus 1310 can also be incorporated into a pouch like that depicted in FIG. 15 to generate a desired concentration of gas, e.g., chlorine dioxide, in water. This embodiment is particularly useful in wet applications, e.g., for use in removing biofilm from dental equipment. One such apparatus was constructed and used to generate an aqueous solution containing 50 parts per million chlorine dioxide. It was then emptied into a dental equipment reservoir and allowed to run through the equipment, which was contaminated with biolfilm, and stand overnight. In the morning, the dental equipment was flushed with water. This procedure was repeated the following two nights. The equipment was then tested for the presence of biofilm and the biofilm was diminished. Thereafter, rinsing the equipment once daily with a 5 parts per million solution was adequate to retard the growth of biofilm in the equipment.

## [O][Cl+][O-] [chlorine dioxide]
microbes
  concentration at which effective as disinfectant: 0.2 mg/L
biofilm; 50 parts per million solution, run through and left overnight, three nights
  presence of biofilm in dental equipment after treatment: diminished
biofilm; rinsing the equipment once daily, after initial treatment
  concentration of solution adequate to retard the growth of biofilm: 5 parts per million
